Data on six molecules can be found in patent publication US20240327415A1, “Multicomponent Complexes, Including Salts, Crystalline Forms, and Hydrates and Solvates of ENT1 Inhibitors” (iTeos Belgium SA, priority 2023, published 2024).

SMILES strings stand for the structures.

Assay type in all cases: physicochemical
Series [1] is described as follows: salt screen, XRPD of damp, dried and 40° C./75% RH stored samples (Salt Preparation Methods 1 and 2). Set-up: key: A = amorphous; Evap. = isolated via evaporation. As to the method: Salt Preparation Method 1: Approximately 25 mg of Compound 1 (free base) was weighed out into 1.5 mL screw-cap vials and a stirrer bar was added. For solid counterions, the appropriate amount of acid (1.0 or 2.0 equiv.) was weighed into separate 1.5 mL screw-cap vials. 100 μL of the appropriate solvent system was added to both the Compound 1 and the solid counterions. Stock solutions of liquid counterions were prepared, such that 100 μL contained 1.0 or 2.0 equiv. of acid. See counterion and solvent lists in Table 60 and Table 61 respectively.
The samples were stirred at 40° C. for 5-10 min and then the acid solutions were added to Compound 1, rinsing out the transfer vial with a further 50 μL of solvent. […] Experiments were temperature cycled between 40° C. and 5° C. (1 h hold; 0.1° C./min ramp/cool) for ca. 24-68 h. Anti-solvent addition (ASA) was carried out to slurries at 5° C. then experiments were heated to 30° C. over 1 h. ASA was carried out at 30° C. or 40° C. where clear solutions or gums were observed.
Temperature cycling was then continued for ca. 16-69 h, followed by further ASA and temperature cycling if required. Material was isolated at 5° C. and analyzed damp by XRPD. All isolated material was dried under vacuum at ca. 40° C. for ca. 17-91 h then re-analyzed by XRPD. The XRPD plate was stored at 40° C./75% RH for 24-48 h and then samples re-analyzed. Solutions were stored uncapped at ambient temperature to evaporate. Any residual solids were analyzed by XRPD.
Salt Preparation Method 2: The general procedure adopted in preparing the potential salts is outlined below. A known mass of Compound 1 (free base) and a known volume of the appropriate solvent system were added to 20 mL scintillation vials. The required mol. equiv. of the appropriate counterions were added to the vials as solutions or slurries in the corresponding solvent system.
The experiments were stirred at 40° C. for ca. 1 h, and then temperature cycled between 40° C. and 5° C. with 0.1° C./min ramp and 1 h hold between each step. Anti-solvent additions and subsequent slurrying at 5° C. were employed in order to facilitate crystallization. […] The damp and dried solids were subsampled and analyzed by XRPD. Where applicable, the dried solids were stored at 40° C./75% RH for 24-48 h in order to improve the crystallinity and/or facilitate solid form conversion to the desired form.

Series [2] can be described thus: seven-day solid stability studies (ambient; 40° C./75% RH; 80° C.), XRPD and HPLC. Set-up: key to XRPD Analysis: Amorphous Compound 1 (free base); Crystalline Form 1 Compound 1 (free base). The note with it: for degradation by HPLC: after 7 days storage at 40° C./75% RH and ambient conditions; for decrease in purity by HPLC: after 7 days storage at 80° C. The procedure:
In the experiment, one set of vials was exposed to ambient light, temperature and humidity conditions. Another was exposed openly to 40° C. and 75% RH conditions and a third was sealed and exposed to 80° C. conditions. After 7 days, XRPD and HPLC measurements were collected.
Example 12-Stability Studies of Amorphous Compound 1 (free base) and Crystalline Form 1 Compound 1 (free base): Seven-day stability studies were carried out comparing amorphous Compound 1 (free base) and crystalline Form 1 Compound 1 (free base) at 40° C./75% RH, under ambient conditions and at 80° C. After storage at 40° C./75% RH and 80° C., the amorphous material formed glassy solids which were pale yellow (40° C./75% RH) or orange (80° C.). It is likely that the material melted and re-solidified at 80° C. and deliquesced at 40° C./75% RH. […] (decrease in purity of ca. 11% area).
Example 15-Stabilities Studies-Crystalline Form 3 Compound 1 di(hydrogen sulfate) and Crystalline Form 4 Compound 1 mono(hydrogen sulfate): Seven-day stability studies were carried out on the prepared crystalline Form 3 Compound 1 di(hydrogen sulfate) and crystalline Form 4 Compound 1 mono(hydrogen sulfate) using the following conditions: (1) Ambient light, temperature and humidity conditions (open vial); (2) 40° C./75% RH (open vial); and (3) 80° C. (closed vial). After 7 days of storage under the specified conditions, XRPD and HPLC analyses were carried out on the residual solid materials, and the results are summarized in Table 51.
Example 18-Seven Day Stability Study on Crystalline Form 2 Compound 1 di(hydrogen sulfate) trihydrate: A 7-day stability study was conducted on crystalline Form 2 Compound 1 di(hydrogen sulfate) trihydrate using the following conditions: (1) ambient light, temperature, and humidity conditions (open vial); (2) 40° C., 75% RH (open vial); and (3) 80° C. (closed vial). After 7 days of storage under the specified, XRPD and HPLC analyses were carried out on the residual solid materials.

A short description of series [3]: Dynamic Vapor Sorption (DVS). As to the method:
(§1) METHOD A: In Example 11, approximately 5-15 mg of sample was placed into a mesh vapor sorption balance pan and loaded into either a DVS Intrinsic or DVS Advantage dynamic vapor sorption balance by Surface Measurement Systems. The sample was subjected to a ramping profile from 40-90% relative humidity (RH) at 10% increments, maintaining the sample at each step until a stable weight had been achieved (dm/dt 0.004%, minimum step length 30 minutes, maximum step length 500 minutes) at 25° C. After completion of the sorption cycle, the sample was dried using the same procedure to 0% RH and then a second sorption cycle back to 40% RH was carried out. Two cycles were performed. The weight change during the sorption/desorption cycles were plotted, allowing the hygroscopic nature of the sample to be determined. XRPD analysis was then carried out on the residual solid.
as §1, with “B:” for “A:”, “Examples 2A, 3, 14, and 17,” for “Example 11,”, “10-20” for “5-15”, “determined.” for “determined. XRPD analysis was then carried out on the residual solid.”
as §1, with “Approximately 10-20” for “METHOD A: In Example 11, approximately 5-15”, “RH” for “relative humidity (RH)”, “min,” for “minutes,”, “min)” for “minutes)”, “determined.” for “determined. XRPD analysis was then carried out on the residual solid.”

Where [4] appears, read: Hydrochloric acid, 1 equiv., Acetonitrile, AS tBME, (evap.).
The mark [5] stands for this setting: Hydrochloric acid, 1 equiv., Ethanol*, AS Heptane, (evap.).
The mark [6] stands for this setting: Hydrochloric acid, 1 equiv., Ethyl acetate, AS Heptane.
[7] abbreviates: Hydrochloric acid, 1 equiv., IPA:H2O (75:25% v/v), AS tBME, (evap.).
Setting [8] is: Hydrochloric acid, 1 equiv., MEK, AS Heptane.
[9] abbreviates: Hydrochloric acid, 1 equiv., THF, AS Heptane.
[10] abbreviates: Benzenesulfonic acid, 2 equiv., Acetonitrile, AS tBME.
Setting [11] is: Benzenesulfonic acid, 2 equiv., Ethanol, AS Heptane.
The mark [12] stands for this setting: Benzenesulfonic acid, 2 equiv., Ethyl acetate, AS Heptane.
[13] abbreviates: Benzenesulfonic acid, 2 equiv., IPA:H2O (75:25), AS tBME.
The mark [14] stands for this setting: Benzenesulfonic acid, 2 equiv., MEK, AS Heptane.
Where [15] appears, read: Benzenesulfonic acid, 2 equiv., THF, AS Heptane.

Take `Cl` [Hydrochloric acid, 1 equiv.]: the “XRPD Analysis 40° C. 75% RH” value in series [1] (Hydrochloric acid, 1 equiv., Acetonitrile, AS tBME) is given as “A”; in series [1] (Hydrochloric acid, 1 equiv., Ethanol*, AS Heptane), “A”; in series [1] (setting [6]), “A”; in series [1] (Hydrochloric acid, 1 equiv., IPA:H2O (75:25% v/v), AS tBME) it was “A”; in series [1] (setting [8]), “A”; in series [1] (setting [9]), “A”. The “XRPD Analysis Damp” value in series [1] (setting [4]), in series [1] (setting [5]), in series [1] (setting [6]), in series [1] (setting [7]), in series [1] (setting [8]) and in series [1] (setting [9]) was “A” each time. Besides, the “XRPD Analysis Dry” value in series [1] (setting [4]), in series [1] (setting [5]), in series [1] (setting [6]), in series [1] (setting [7]), in series [1] (setting [8]) and in series [1] (setting [9]) was “A” in each case.
For the molecule `COc1cc(C(=O)O[C@@H]2CCCOc3cc(cc(OC)c3OC)C(=O)NCCCN3CCCN(CC2)CC3)cc(OC)c1OC.O=S(=O)(O)O` [Form 4 mono(hydrogen sulfate)], the HPLC in series [2] (7 days, 40° C./75% RH (open vial)) is 99.87 % area; in series [2] (7 days, 40° C./75% RH, open vial) it was 99.87 % area; in series [2] (7 days, 80° C. (closed vial)), 99.64 % area; in series [2] (7 days, 80° C., sealed), 99.64 % area; in series [2] (7 days, Ambient (open vial)) it was 99.89 % area; in series [2] (7 days, Ambient, open vial), 99.89 % area. Also, the HPLC in series [2] (Input sample) was 99.66 % area. Further, the XRPD result in series [2] (7 days, 80° C. (closed vial)) is given as “Amorphous*”; in series [2] (7 days, 80° C., sealed) it was “Amorphous*”.
With `COc1cc(C(=O)O[C@@H]2CCCOc3cc(cc(OC)c3OC)C(=O)NCCCN3CCCN(CC2)CC3)cc(OC)c1OC` [Form 1 Compound 1], the “XRPD Analysis” value in series [2] (7 days, 40° C./75% RH) was “A”. In series [2] (7 days, 80° C.), the “Post-Storage Observations” value is reported as “Orange glassy”, the “Solid Purity” value turned out to be 84.1 % area and the “XRPD Analysis” value is recorded as 1. Further, in series [2] (7 days, Ambient), the “Post-Storage Observations” value is “White solid”, the “Solid Purity” value is recorded as 99.9 % area and the “XRPD Analysis” value is recorded as “A”.
Regarding `COc1cc(C(=O)O[C@@H]2CCCOc3cc(cc(OC)c3OC)C(=O)NCCCN3CCCN(CC2)CC3)cc(OC)c1OC` [amorphous Compound 1 (free base)], in series [3] (25° C.), the hygroscopicity result is listed as “hygroscopic”. In series [2] (7 days, 40° C./75% RH), the “Post-Storage Observations” value is given as “Pale yellow”, the “Solid Purity” value is listed as 98.8 % area and the “XRPD Analysis” value was “A”. Besides, in series [2] (7 days, 80° C.), the “Post-Storage Observations” value is given as “Orange glassy”, the “Solid Purity” value came to 87.5 % area and the “XRPD Analysis” value is given as “A”. For the same molecule, in series [2] (7 days, Ambient), the “Post-Storage Observations” value is on record as “White solid”, the “Solid Purity” value was found to be 98.9 % area and the “XRPD Analysis” value is given as “A”. Besides, in series [2] (7 days, all storage conditions), the “solid form by XRPD after storage” value was “remained amorphous”. In addition, in series [2], the “degradation by HPLC” value is given as “no significant degradation” and the “decrease in purity by HPLC” value is reported as “ca. 11 % area”. In addition, the “Input Material Purity” value in series [2] (before storage) stood at 98.8 % area.
For the molecule `O=S(=O)(O)c1ccccc1` [Benzenesulfonic acid, 2 equiv.], the “XRPD Analysis 40° C. 75% RH” value in series [1] (setting [10]), in series [1] (setting [11]), in series [1] (setting [12]), in series [1] (setting [13]), in series [1] (setting [14]) and in series [1] (setting [15]) was “A” in each case. In addition, the “XRPD Analysis Damp” value in series [1] (setting [10]), in series [1] (setting [11]), in series [1] (setting [12]), in series [1] (setting [13]), in series [1] (setting [14]) and in series [1] (setting [15]) was “A” each time. Also, the “XRPD Analysis Dry” value in series [1] (setting [10]), in series [1] (setting [11]), in series [1] (setting [12]), in series [1] (setting [13]), in series [1] (setting [14]) and in series [1] (setting [15]) was “A” throughout.
As to `COc1cc(C(=O)O[C@@H]2CCCOc3cc(cc(OC)c3OC)C(=O)NCCCN3CCCN(CC2)CC3)cc(OC)c1OC` [crystalline Form 1 Compound 1 (free base)], the hygroscopicity result in series [3] (25° C.) was “slightly hygroscopic”. In series [3] (DVS at 25° C.), the “post-DVS sample (XRPD / appearance)” value is “predominantly amorphous material was recovered”. The “moisture uptake (DVS)” value in series [3] (at 80% RH, second sorption cycle, after likely formation of amorphous material) amounted to 3.3%; in series [3] (between 40-80% RH, first sorption cycle, 25° C.), 0.9%; in series [3] (between 80-90% RH, 25° C.), 3.8%. For the same molecule, the “solid form by XRPD after storage” value is “amorphous material was recovered” in series [2] (7 days, 40° C./75% RH); “amorphous material was recovered” in series [2] (7 days, 80° C.); “retained” in series [2] (7 days, ambient conditions). The “degradation by HPLC” value in series [2] is “no significant degradation”. Also, the “decrease in purity by HPLC” value in series [2] is listed as “ca. 15 % area”.
